Blank lines part the entries; values can stand above or below the compound they belong to.
Tests used:
[1] = target: T1, FGFR3 (Homo sapiens, UniProt P22607); test: FGFR3 in vitro kinase inhibitory activity assay; assay type: biochemical; conditions: read-out: FGFR3 IC50(μM) or % I
T1 construct: purchased Upstate
Method: FGFR3, VEGFR2 and PDGFR in vitro Kinase Inhibitory Activity Assays
Enzymes (from Upstate), prepared at 2× final concentration, were incubated with test compounds, biotinylated Flt3 substrate (biotin-VASSDNEYFYVDF) (Cell Signalling Technology Inc.) and ATP in the appropriate assay buffer (Table 1). The reaction was allowed to proceed for 3 hours (FGFR3), 1 hour (VEGFR2, PDGFR-beta) at room temperature on a plate shaker at 700 rpm before being stopped with 35 mM EDTA, pH 8 (FGFR3, VEGFR2) or 55 mM EDTA, pH 8 (PDGFR-beta). 5× detection mix/50 mM HEPES pH 7.5, 0.1% BSA, 11.34 nM Eu-anti-pY (PY20) (PerkinElmer) 74 nM SA-XL665 (Cisbio) for FGFR3, 50 mM HEPES, pH 7.5, 0.1% BSA, 11.34 nM Eu-anti-pY (PY20), 187.5 nM SA-XL665 for VEGFR2 and 50 mM HEPES, pH 7.5, 0.1% BSA, 11.34 nM Eu-anti-pY (PT66) (PerkinElmer), 375 nM SA-XL665 (Cisbio) for PDGFR-beta) was then added to each well and the plate sealed and incubated at room temperature for one hour on a plate shaker at 700 rpm. The plate was then read on a Packard Fusion plate reader or a BMG Pherastar both in TRF mode.

[2] = target: T2, Ba/F3-TEL-FGFR3 cells (Homo sapiens, UniProt P22607); test: Ba/F3-TEL-FGFR3 cell proliferation assay (Alamar Blue); assay type: cell-based, murine; conditions: 72 hours; read-out: BaF3-TEL-FGFR3 prolif
T2 construct: fused on or other part: TEL (ETV6) N-terminal oligomerising part fused to the FGFR3 kinase part; P41212 (Transcription factor ETV6)
T2 sequence (P22607 whole entry, change not shown, the tested form may be a part): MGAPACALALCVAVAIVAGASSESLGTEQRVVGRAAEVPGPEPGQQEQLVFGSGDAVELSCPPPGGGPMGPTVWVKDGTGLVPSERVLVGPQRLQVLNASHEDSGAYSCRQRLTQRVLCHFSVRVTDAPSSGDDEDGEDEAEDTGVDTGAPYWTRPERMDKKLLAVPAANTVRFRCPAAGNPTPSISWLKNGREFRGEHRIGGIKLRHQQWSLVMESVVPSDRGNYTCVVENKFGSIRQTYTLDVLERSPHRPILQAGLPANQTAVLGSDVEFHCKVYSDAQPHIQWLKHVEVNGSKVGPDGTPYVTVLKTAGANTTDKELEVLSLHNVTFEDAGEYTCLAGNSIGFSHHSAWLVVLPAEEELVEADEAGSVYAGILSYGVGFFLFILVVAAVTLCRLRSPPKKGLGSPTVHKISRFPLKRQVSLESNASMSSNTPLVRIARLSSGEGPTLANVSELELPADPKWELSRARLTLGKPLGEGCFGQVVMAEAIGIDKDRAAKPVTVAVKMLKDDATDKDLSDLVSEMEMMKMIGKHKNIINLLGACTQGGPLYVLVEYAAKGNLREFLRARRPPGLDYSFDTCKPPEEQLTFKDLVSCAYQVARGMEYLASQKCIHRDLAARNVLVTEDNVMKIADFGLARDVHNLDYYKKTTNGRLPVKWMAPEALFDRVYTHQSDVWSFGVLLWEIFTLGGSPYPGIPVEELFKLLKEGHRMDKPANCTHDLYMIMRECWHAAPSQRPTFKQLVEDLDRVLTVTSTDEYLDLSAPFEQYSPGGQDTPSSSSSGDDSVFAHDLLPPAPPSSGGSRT
Method: Ba/F3-TEL-FGFR3 & Ba/F3 (WT) Cell Proliferation Assays
Stably transfected Ba/F3-TEL-FGFR3 cells were plated out into black 96-well tissue culture plates with clear bottoms in RPMI medium containing 10% FBS and 0.25 mg/ml G418 at a density of 5×10^3 cells/well (200 μl per well). The parental wild-type Ba/F3 cells (DSMZ no.: ACC 300) were plated out into black 96-well tissue culture plates with clear bottoms in RPMI medium containing 10% FBS and 2 ng/ml mouse IL-3 (R&D Systems) at a density of 2.5×10^3 cells/well (200 μl per well). Plates were placed in an incubator overnight before adding the compounds the following day. Dilutions of compounds were made in DMSO starting at 10 mM and were diluted into the wells to give a final DMSO concentration of 0.1% in assay. Compounds were left on the cells for 72 hours before the plates were removed from the incubator and 20 μl of Alamar Blue™ (Biosource) was added to each well. Plates were placed in the incubator for 4-6 hours before reading plates at 535 nm (excitation)/590 nm (emission) on a Fusion plate reader (Packard). Where inhibition is high an IC50 can be determined.

[3] = target: T3, Ba/F3-Flt3 cells (Homo sapiens, UniProt P36888, cells depend on it, form not given); test: Ba/F3-Flt3 assay (Alamar Blue); assay type: cell-based, murine; conditions: without IL3
T3 construct: Ba/F3-flt3 − IL3 pIC50; other: without IL3
T3 sequence (P36888 1-993): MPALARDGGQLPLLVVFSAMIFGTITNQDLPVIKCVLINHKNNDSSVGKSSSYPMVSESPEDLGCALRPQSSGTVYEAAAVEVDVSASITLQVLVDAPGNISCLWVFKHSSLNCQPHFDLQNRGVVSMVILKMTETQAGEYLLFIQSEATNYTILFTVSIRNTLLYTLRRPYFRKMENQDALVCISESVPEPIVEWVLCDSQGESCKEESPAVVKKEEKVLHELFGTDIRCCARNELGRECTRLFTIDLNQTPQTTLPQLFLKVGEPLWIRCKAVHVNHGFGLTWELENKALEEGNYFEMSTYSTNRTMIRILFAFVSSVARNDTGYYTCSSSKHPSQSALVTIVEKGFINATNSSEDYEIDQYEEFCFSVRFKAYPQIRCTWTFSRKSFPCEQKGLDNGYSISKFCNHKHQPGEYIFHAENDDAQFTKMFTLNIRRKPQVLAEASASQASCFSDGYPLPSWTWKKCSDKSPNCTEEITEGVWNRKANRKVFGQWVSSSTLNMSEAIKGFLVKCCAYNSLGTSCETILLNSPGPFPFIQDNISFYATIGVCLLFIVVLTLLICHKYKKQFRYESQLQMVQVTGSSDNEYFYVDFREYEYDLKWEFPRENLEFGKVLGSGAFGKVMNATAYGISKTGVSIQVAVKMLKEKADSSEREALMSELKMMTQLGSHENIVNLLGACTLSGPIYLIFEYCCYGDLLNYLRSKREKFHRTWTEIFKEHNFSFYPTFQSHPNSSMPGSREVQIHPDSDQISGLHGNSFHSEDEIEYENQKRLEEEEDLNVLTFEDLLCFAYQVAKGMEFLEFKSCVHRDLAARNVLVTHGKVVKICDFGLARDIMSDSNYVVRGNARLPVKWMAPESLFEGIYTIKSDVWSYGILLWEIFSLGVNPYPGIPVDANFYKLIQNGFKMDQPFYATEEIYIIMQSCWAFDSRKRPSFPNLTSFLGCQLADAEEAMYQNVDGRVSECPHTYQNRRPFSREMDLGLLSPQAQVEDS
Description: (§1) Ba/F3, a murine interleukin-3 dependent pro-B cell line is increasingly popular as a model system for assessing both the potency and downstream signaling of kinase oncogenes, and the ability of small-molecule kinase inhibitors to block kinase activity. Facilitated by their growth properties. Ba/F3 cells have recently been adapted to high throughput assay formats for compound profiling. Further, several published approaches show promise in predicting resistance to small-molecule kinase inhibitors elicited by point mutations interfering with inhibitor binding (Ba/F3 cells and their use in kinase drug discovery; Markus Warmuth, Sungjoon Kim, Xiang-ju Gu, Gang Xia and Francisco Adria'n; Curr Opin Oncol 19:55-60).
(§2) Ba/F3-Flt3 cells (cultured in phenol red free RPMI-1640, 10% A FCS and 50 μg/ml Gentamycin at 37° C. and 5% 002) were plated at a density of 10000 cells in a total volume of 180 μl medium in a black TC-treated sterile 96-well plate (Corning). After 24 hours, drugs in different dilutions were added to a final volume of 200 μl and at a final DMSO concentration of 0.2% prior to incubation at 37° C., and 5% CO2.
(§3) After 24 h, to each well 40 μl Alamar Blue solution (Aldrich) was added and the cells were further incubated for 4 hours at 37° C. Fluorescence (ex. 544, em. 590 nm) was measured using a fluorescence reader (Labsystems) and IC50's were calculated.
(§4) In the condition containing IL3, 10 ng/ml of murine IL3 (PeproTech) was added during compound incubation.

[4] = tested on: Ba/F3-Flt3 cells; test: Ba/F3-Flt3 assay (Alamar Blue); assay type: cell-based, murine; conditions: Mus musculus, 24 h; with 10 ng/ml murine IL3; read-out: Ba/F3-flt3 + IL3 pIC50 (converted)
Description: as §1, §2, §3, §4

T1 sequence (P22607 23-806): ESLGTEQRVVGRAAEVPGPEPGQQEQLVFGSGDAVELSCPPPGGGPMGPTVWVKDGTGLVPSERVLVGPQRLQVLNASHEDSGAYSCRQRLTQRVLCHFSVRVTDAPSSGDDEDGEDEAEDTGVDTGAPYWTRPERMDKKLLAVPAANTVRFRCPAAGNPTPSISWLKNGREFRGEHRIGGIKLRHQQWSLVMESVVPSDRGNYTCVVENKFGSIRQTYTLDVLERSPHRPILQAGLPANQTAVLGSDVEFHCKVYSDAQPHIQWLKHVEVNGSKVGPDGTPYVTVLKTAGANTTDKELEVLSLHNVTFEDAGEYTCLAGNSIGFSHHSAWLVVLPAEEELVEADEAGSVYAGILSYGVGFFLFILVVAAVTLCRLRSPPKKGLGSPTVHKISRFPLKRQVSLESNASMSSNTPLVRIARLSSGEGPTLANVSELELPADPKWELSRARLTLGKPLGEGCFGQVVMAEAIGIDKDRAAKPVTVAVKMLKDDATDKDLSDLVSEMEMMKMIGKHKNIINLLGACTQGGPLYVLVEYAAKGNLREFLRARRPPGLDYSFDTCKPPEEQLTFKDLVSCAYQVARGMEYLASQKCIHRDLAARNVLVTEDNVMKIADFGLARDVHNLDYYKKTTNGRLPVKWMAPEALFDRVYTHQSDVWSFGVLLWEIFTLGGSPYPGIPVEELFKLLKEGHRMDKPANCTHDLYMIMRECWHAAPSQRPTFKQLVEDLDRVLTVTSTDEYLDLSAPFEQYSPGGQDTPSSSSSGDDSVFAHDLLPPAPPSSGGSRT

IC50 [1]: 0.0087 µM | GI50 [2]: 330 nM | Ba/F3-flt3 − IL3 pIC50 [3]: <5 | IC50 [4]: > 10000 nM
Structure (SMILES): Cc1nc(-c2ccn3c(-c4cc(NC(=O)NCC(F)(F)F)cc(OC(C)C)c4)cnc3c2)ccc1F [Compound F-3, 1-{3-[7-(5-Fluoro-6-methyl-pyridin-2-yl)-imidazo[1,2-a]pyridin-3-yl]-5-isopropoxy-phenyl}-3-(2,2,2-trifluoro-ethyl)-urea]

IC50 [1]: 0.013 µM | GI50 [2]: 230 nM | Ba/F3-flt3 − IL3 pIC50 [3]: 5.04 | IC50 [4]: > 10000 nM
Structure (SMILES): CCNC(=O)Nc1cc(OC(C)C)cc(-c2cnc3cc(-c4nncs4)ccn23)c1 [Compound F-10, 1-Ethyl-3-[3-isopropoxy-5-(7-[1,3,4]thiadiazol-2-yl-imidazo[1,2-a]pyridin-3-yl)-phenyl]-urea]

IC50 [1]: 0.034 µM | GI50 [2]: 170 nM | Ba/F3-flt3 − IL3 pIC50 [3]: <5 | IC50 [4]: > 10000 nM
Structure (SMILES): CC(C)Oc1cc(NC(=O)NCC(F)(F)F)cc(-c2cnc3cc(-c4ccnc(C(F)(F)F)n4)ccn23)c1 [Compound F-8, 1-{3-Isopropoxy-5-[7-(2-trifluoromethyl-pyrimidin-4-yl)-imidazo[1,2-a]pyridin-3-yl]-phenyl}-3-(2,2,2-trifluoro-ethyl)-urea]

IC50 [1]: 0.00247 µM | GI50 [2]: 42 nM | Ba/F3-flt3 − IL3 pIC50 [3]: <5 | IC50 [4]: > 10000 nM
Structure (SMILES): CC(C)Oc1cc(NC(=O)NCC(F)(F)F)cc(-c2cnc3cc(-c4nncs4)ccn23)c1.Cl [Compound F-19, 1-[3-Isopropoxy-5-(7-[1,3,4]thiadiazol-2-yl-imidazo[1,2-a]pyridin-3-yl)-phenyl]-3-(2,2,2-trifluoro-ethyl)-urea]

Second part, the compound before the results:

Structure (SMILES): COCc1cc(NC(=O)NCC(F)(F)F)cc(-c2cnc3cc(-c4ccnc(C(F)(F)F)n4)ccn23)c1 [Compound F-9, 1-{3-Methoxymethyl-5-[7-(2-trifluormethyl-pyrimidin-4-yl)-imidazo[1,2-a]pyridin-3-yl]-phenyl}-3-(2,2,2-trifluoro-ethyl)-urea]
IC50 [1]: 0.0093 µM | GI50 [2]: 240 nM | Ba/F3-flt3 − IL3 pIC50 [3]: <5 | IC50 [4]: > 10000 nM

Structure (SMILES): CC(C)Oc1cc(NC(=O)NCC(F)(F)F)cc(-c2cnc3cc(N4CCC(F)(F)CC4)ccn23)c1 [Compound F-13, 1-{3-[7-(4,4-Difluoro-piperidin-1-yl)-imidazo[1,2-a]pyridin-3-yl]-5-isopropoxy-phenyl}-3-(2,2,2-trifluoro-ethyl)-urea]
IC50 [1]: 0.061 µM | GI50 [2]: 820 nM | Ba/F3-flt3 − IL3 pIC50 [3]: <5 | IC50 [4]: > 10000 nM

Structure (SMILES): CC(C)Oc1cc(NC(=O)NCC(F)(F)F)cc(-c2cnc3cc(C(=O)C4CC4)ccn23)c1 [Compound F-6, 1-[3-(7-Cyclopropanecarbonyl-imidazo[1,2-a]pyridin-3-yl)-5-isopropoxy-phenyl]-3-(2,2,2-trifluoro-ethyl)-urea]
IC50 [1]: 0.0012 µM | GI50 [2]: 31 nM | Ba/F3-flt3 − IL3 pIC50 [3]: <5 | IC50 [4]: > 10000 nM

Structure (SMILES): CCOc1cc(NC(=O)NCC(F)(F)F)cc(-c2cnc3cc(-c4ccnc(C(F)(F)F)n4)ccn23)c1 [Compound F-16, 1-{3-Ethoxy-5-[7-(2-trifluoromethyl-pyrimidin-4-yl)-imidazo[1,2-a]pyridin-3-yl]-phenyl}-3-(2,2,2-trifluoro-ethyl)-urea]
IC50 [1]: 0.027 µM | GI50 [2]: 470 nM | Ba/F3-flt3 − IL3 pIC50 [3]: <5 | IC50 [4]: > 10000 nM

Structure (SMILES): Cc1nnc(-c2ccn3c(-c4cc(NC(=O)NCC(F)(F)F)cc(OC5CCC5)c4)cnc3c2)o1 [Compound F-11, 1-{3-Cyclobutoxy-5-[7-(5-methyl-[1,3,4]oxadiazol-2-yl)-imidazo[1,2-a]pyridin-3-yl]-phenyl}-3-(2,2,2-trifluoro-ethyl)-urea]
IC50 [1]: 0.046 µM | GI50 [2]: 520 nM | Ba/F3-flt3 − IL3 pIC50 [3]: <5 | IC50 [4]: > 10000 nM
